Reference: patent US12691112B2, “FGFR tyrosine kinase inhibitors for the treatment of urothelial carcinoma” (Janssen Pharmaceutica NV, priority 2019, dated 2026)

Assays:
[1] = system: metastatic or surgically unresectable urothelial cancer harboring select FGFR genetic alterations; assay: Phase 2 study NCT02365597: overall survival (Kaplan-Meier); format: in vivo, human
Description: The term “overall survival” is defined as the time from first dose to the date of death. Data for patients who are alive or have unknown status is censored at the last date on which the patient is known to be alive.
Patients were contacted every 12 weeks for survival assessment.
The study was designed to enroll 180 patients with specified FGFR alterations. Of these, ≥88 were required in the selected regimen. […] Responses were assessed by investigators and an independent radiological review committee. Progression-free survival and overall survival were estimated using Kaplan-Meier product limit method. Data from patients who were progression free and alive or with unknown status were censored at last tumor assessment. Efficacy end points were analysed at primary analysis cut-off.

serum phosphate = assay: Pharmacodynamics: serum phosphate; format: in vivo, human; settings: consequence of FGFR inhibition
Description: To manage phosphate elevation, phosphate binders were permitted. Avoid concomitant use with agents that can alter serum phosphate levels before the initial dose increase period based on serum phosphate levels.

[2] = human, in vivo
[3] = FGFR fusions (excluding mutations), 8 mg QD
[4] = FGFR fusions (excluding mutations), 10 mg 7 on/7 off
[5] = FGFR fusions (excluding mutations), Total
[6] = FGFR mutations (excluding fusions), 6 mg QD
[7] = FGFR mutations (excluding fusions), 8 mg QD
[8] = FGFR mutations (excluding fusions), 10 mg 7 on/7 off
[9] = FGFR mutations (excluding fusions), Total
[10] = FGFR mutations and fusions, 6 mg QD
[11] = FGFR mutations and fusions, 10 mg 7 on/7 off
[12] = FGFR mutations and fusions, Total

COc1cc(OC)cc(N(CCNC(C)C)c2ccc3ncc(-c4cnn(C)c4)nc3c2)c1 [erdafitinib, N-(3,5-dimethoxy-phenyl)-N′-(1-methylethyl)-N-[3-(1-methyl-1H-pyrazol-4-yl)quinoxalin-6-yl]ethane-1,2-diamine]
Overall survival, Q3 ([1]; FGFR fusions (excluding mutations), 6 mg QD): 18.96 months | 6-month overall survival rate (95% CI) [1, 3]: 0.77 (0.54, 0.90) | 12-month overall survival rate (95% CI) [1, 3]: 0.46 (0.24, 0.66) | Overall survival, Median (95% CI) [1, 3]: 10.32 (6.05, NE) months | Overall survival, Q1 [1, 3]: 6.05 months | Overall survival, Q3 [1, 3]: 14.03 months | 6-month overall survival rate (95% CI) [1, 4]: 1.00 (1.00, 1.00) | 12-month overall survival rate (95% CI) [1, 4]: 0.50 (0.01, 0.91) | 18-month overall survival rate (95% CI) [1, 4]: 0 (NE, NE) | 24-month overall survival rate (95% CI) [1, 4]: 0 (NE, NE) | Overall survival, Median (95% CI) [1, 4]: 10.37 (7.72, 13.01) months | Overall survival, Q1 [1, 4]: 7.72 months | Overall survival, Q3 [1, 4]: 13.01 months | 6-month overall survival rate (95% CI) [1, 5]: 0.80 (0.62, 0.90) | 12-month overall survival rate (95% CI) [1, 5]: 0.46 (0.28, 0.62) | 18-month overall survival rate (95% CI) [1, 5]: 0.31 (0.12, 0.52) | Overall survival, Median (95% CI) [1, 5]: 9.33 (7.72, 18.96) months | Overall survival, Q1 [1, 5]: 6.97 months | Overall survival, Q3 [1, 5]: 18.96 months | 6-month overall survival rate (95% CI) [1, 6]: 0.68 (0.54, 0.79) | 12-month overall survival rate (95% CI) [1, 6]: 0.30 (0.18, 0.43) | 18-month overall survival rate (95% CI) [1, 6]: 0.21 (0.11, 0.33) | Overall survival, Median (95% CI) [1, 6]: 8.31 (6.41, 9.63) months | Overall survival, Q1 [1, 6]: 5.13 months | Overall survival, Q3 [1, 6]: 14.82 months | 6-month overall survival rate (95% CI) [1, 7]: 0.74 (0.61, 0.83) | 12-month overall survival rate (95% CI) [1, 7]: 0.54 (0.38, 0.68) | Overall survival, Median (95% CI) [1, 7]: 12.02 (8.64, NE) months | Overall survival, Q1 [1, 7]: 5.98, NE months | 6-month overall survival rate (95% CI) [1, 8]: 0.70 (0.47, 0.84) | 12-month overall survival rate (95% CI) [1, 8]: 0.31 (0.14, 0.50) | 18-month overall survival rate (95% CI) [1, 8]: 0.26 (0.11, 0.45) | 24-month overall survival rate (95% CI) [1, 8]: 0.22 (0.08, 0.40) | Overall survival, Median (95% CI) [1, 8]: 7.39 (5.78, 10.71) months | Overall survival, Q1 [1, 8]: 5.55 months | Overall survival, Q3 [1, 8]: 18.76 months | 6-month overall survival rate (95% CI) [1, 9]: 0.71 (0.63, 0.78) | 12-month overall survival rate (95% CI) [1, 9]: 0.39 (0.30, 0.48) | 18-month overall survival rate (95% CI) [1, 9]: 0.29 (0.20, 0.39) | 24-month overall survival rate (95% CI) [1, 9]: 0.24 (0.15, 0.35) | Overall survival, Median (95% CI) [1, 9]: 9.10 (7.46, 11.86) months | Overall survival, Q1 [1, 9]: 5.49 months | Overall survival, Q3 [1, 9]: 18.76 months | 6-month overall survival rate (95% CI) [1, 10]: 0.75 (0.13, 0.96) | 12-month overall survival rate (95% CI) [1, 10]: 0.75 (0.13, 0.96) | 18-month overall survival rate (95% CI) [1, 10]: 0.38 (0.01, 0.81) | Overall survival, Median (95% CI) [1, 10]: 12.65 (0.39, NE) months | Overall survival, Q1 [1, 10]: 6.52, NE months | 6-month overall survival rate (95% CI) [1, 11]: 0.67 (0.05, 0.95) | 12-month overall survival rate (95% CI) [1, 11]: 0 (NE, NE) | 18-month overall survival rate (95% CI) [1, 11]: 0 (NE, NE) | 24-month overall survival rate (95% CI) [1, 11]: 0 (NE, NE) | Overall survival, Median (95% CI) [1, 11]: 6.21 (3.98, 9.10) months | Overall survival, Q1 [1, 11]: 3.98 months | Overall survival, Q3 [1, 11]: 9.10 months | 6-month overall survival rate (95% CI) [1, 12]: 0.71 (0.26, 0.92) | 12-month overall survival rate (95% CI) [1, 12]: 0.43 (0.10, 0.73) | 18-month overall survival rate (95% CI) [1, 12]: 0.21 (0.01, 0.59) | Overall survival, Median (95% CI) [1, 12]: 9.10 (0.39, NE) months | Overall survival, Q1 [1, 12]: 3.98 months | Overall survival, Q3 [1, 12]: 12.65 months | Median overall survival (95% CI) ([1]; Regimen 1, 10 mg intermittent): 7.5 (6.0 to 10.7) months | overall survival rate at 12 months ([1]; Regimen 1, 10 mg intermittent): 31% | Median overall survival (95% CI) ([1]; Regimen 2, 6 mg continuous): 8.6 (6.5 to 9.7) months | overall survival rate at 12 months ([1]; Regimen 2, 6 mg continuous): 33% | Survival rate at 12 months ([1]; Regimen 3, 8 mg continuous): 55% | median overall survival ([1]; Regimen 3, 8 mg continuous): 13.8 months | effect on serum phosphate level (serum phosphate): increased serum phosphate level | circulating metabolites in plasma [2]: no circulating metabolites | exposure (Cmax and AUC) versus dose [2]: increased proportionally | mean total apparent clearance (CL/F) [2]: 0.362 L/h | pharmacokinetics in specific populations [2]: No clinically meaningful trends | time to steady state [2]: 2 weeks
